Assay results as given in patent US10081631B2, “2-(1H-indazol-3-yl)-1H-imidazo[4,5-C]pyridine and therapeutic uses thereof” (Samumed, LLC, priority 2014, dated 2018).

What was measured:
[1] = system: Wnt activity (Sp5-Luc reporter, SW480 colon carcinoma cells); assay: Screening assay for Wnt activity: Sp5-Luc reporter gene assay in SW480 cells; type: cell-based; details: Homo sapiens, 42 h incubation, luminescence
Procedure, shortened: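 IC50 values come from variable-slope four-parameter fits of luciferase signal normalized to DMSO wells. Stable Sp5-Luc reporter SW480 colon carcinoma cells were exposed to compounds in a 3-fold dilution series (source plates from 10 mM stock) for forty-two hours at 37 °C.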

[2] = system: primary human fibroblasts derived from IPF patients (LL29 cells); assay: Inhibition of fibrosis: TGF-β1-treated primary human fibroblasts from IPF patients (LL29), αSMA staining; type: cell-based; details: Fibroblast, 96 h, TGF-β1 20 ng/mL, 4 days, % αSMA-positive cells
Procedure, shortened: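 […] (0.1% DMSO) on LL29 cells in F12 with 1% FBS, with TGF-β1 (20 ng/mL) added 1 h after plating; 4 days at 37 °C. SYTOX-positive dead cells were excluded and the % αSMA-positive cells was imaged, normalized to TGF-β1/DMSO wells, triplicates; EC50 by non-linear regression.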

Row | IC50 [1] [µM] | Structure (SMILES) | EC50 [2] [µM]
1 | 0.004 | O=C(Nc1cncc(-c2ccc3[nH]nc(-c4nc5c(-c6cccs6)nccc5[nH]4)c3c2)c1)C1CC1 [Compound 305, N-(5-(3-(4-(Thiophen-2-yl)-1H-imidazo[4,5-c]pyridin-2-yl)-1H-indazol-5-yl)pyridin-3-yl)cyclopropanecarboxamide] | 0.022
2 | 0.0447 | CC(C)CC(=O)Nc1cncc(-c2ccc3[nH]nc(-c4nc5c(-c6ccc(F)s6)nccc5[nH]4)c3c2)c1 [Compound 314, N-(5-(3-(4-(5-Fluorothiophen-2-yl)-1H-imidazo[4,5-c]pyridin-2-yl)-1H-indazol-5-yl)pyridin-3-yl)-3-methylbutanamide] | 0.665
3 | 0.0052 | CC(C)(C)C(=O)Nc1cncc(-c2ccc3[nH]nc(-c4nc5c(-c6ccc(F)s6)nccc5[nH]4)c3c2)c1 [Compound 320, N-(5-(3-(4-(5-Fluorothiophen-2-yl)-1H-imidazo[4,5-c]pyridin-2-yl)-1H-indazol-5-yl)pyridin-3-yl)pivalamide] | 0.115
4 | 0.284 | Fc1ccc(-c2nccc3[nH]c(-c4n[nH]c5ccc(-c6cncc(CN7CCCC7)c6)cc45)nc23)s1 [Compound 326, 4-(5-Fluorothiophen-2-yl)-2-(5-(5-(pyrrolidin-1-ylmethyl)pyridin-3-yl)-1H-indazol-3-yl)-1H-imidazo[4,5-c]pyridine] | 0.94
5 | 0.0326 | O=C(Nc1cncc(-c2ccc3[nH]nc(-c4nc5c(-c6ccc(F)s6)nccc5[nH]4)c3c2)c1)C1CCC1 [Compound 332, N-(5-(3-(4-(5-Fluorothiophen-2-yl)-1H-imidazo[4,5-c]pyridin-2-yl)-1H-indazol-5-yl)pyridin-3-yl)cyclobutanecarboxamide] | 0.363
6 | 0.0013 | Cc1ccc(-c2nccc3[nH]c(-c4n[nH]c5ccc(-c6cncc(N)c6)cc45)nc23)s1 [Compound 341, 5-(3-(4-(5-Methylthiophen-2-yl)-1H-imidazo[4,5-c]pyridin-2-yl)-1H-indazol-5-yl)pyridin-3-amine] | 0.009
7 | 0.007 | Cc1ccc(-c2nccc3[nH]c(-c4n[nH]c5ccc(-c6cncc(NC(=O)C(C)C)c6)cc45)nc23)s1 [Compound 347, N-(5-(3-(4-(5-Methylthiophen-2-yl)-1H-imidazo[4,5-c]pyridin-2-yl)-1H-indazol-5-yl)pyridin-3-yl)isobutyramide] | 0.038
8 | 0.0127 | Cc1ccc(-c2nccc3[nH]c(-c4n[nH]c5ccc(-c6cncc(NC(=O)CC(C)(C)C)c6)cc45)nc23)s1 [Compound 354, 3,3-Dimethyl-N-(5-(3-(4-(5-methylthiophen-2-yl)-1H-imidazo[4,5-c]pyridin-2-yl)-1H-indazol-5-yl)pyridin-3-yl)butanamide] | 0.086
9 | 0.009 | Cc1ccc(-c2nccc3[nH]c(-c4n[nH]c5ccc(-c6cncc(NC(=O)C7CCC7)c6)cc45)nc23)s1 [Compound 358, N-(5-(3-(4-(5-Methylthiophen-2-yl)-1H-imidazo[4,5-c]pyridin-2-yl)-1H-indazol-5-yl)pyridin-3-yl)cyclobutanecarboxamide] | 0.021
10 | < 0.001 | CC(=O)c1ccc(-c2nccc3[nH]c(-c4n[nH]c5ccc(-c6cccnc6)cc45)nc23)s1 [Compound 368, 1-(5-(2-(5-(Pyridin-3-yl)-1H-indazol-3-yl)-1H-imidazo[4,5-c]pyridin-4-yl)thiophen-2-yl)ethan-1-one] | 0.014
11 | 0.476 | CC(=O)c1ccc(-c2nccc3[nH]c(-c4n[nH]c5ccc(-c6cncc(NC(=O)C7CCCCC7)c6)cc45)nc23)s1 [Compound 386, N-(5-(3-(4-(5-Acetylthiophen-2-yl)-1H-imidazo[4,5-c]pyridin-2-yl)-1H-indazol-5-yl)pyridin-3-yl)cyclohexanecarboxamide] | 0.536

The next lines start with the compound.

Row | Structure (SMILES) | IC50 [1] [µM] | EC50 [2] [µM]
12 | O=C(Nc1cncc(-c2ccc3[nH]nc(-c4nc5c(-c6cccs6)nccc5[nH]4)c3c2)c1)C1CCCC1 [Compound 307, N-(5-(3-(4-(Thiophen-2-yl)-1H-imidazo[4,5-c]pyridin-2-yl)-1H-indazol-5-yl)pyridin-3-yl)cyclopentanecarboxamide] | 0.0348 | 0.422
13 | FC1(F)CCN(Cc2cncc(-c3ccc4[nH]nc(-c5nc6c(-c7cccs7)nccc6[nH]5)c4c3)c2)C1 [Compound 311, 2-(5-(5-((3,3-Difluoropyrrolidin-1-yl)methyl)pyridin-3-yl)-1H-indazol-3-yl)-4-(thiophen-2-yl)-1H-imidazo[4,5-c]pyridine] | 0.32 | 0.083
14 | Cc1ccc(-c2nccc3[nH]c(-c4n[nH]c5ccc(-c6cncc(CN7CCCCC7)c6)cc45)nc23)s1 [Compound 353, 4-(5-Methylthiophen-2-yl)-2-(5-(5-(piperidin-1-ylmethyl)pyridin-3-yl)-1H-indazol-3-yl)-1H-imidazo[4,5-c]pyridine] | 0.844 | 0.009
15 | CC(=O)c1ccc(-c2nccc3[nH]c(-c4n[nH]c5ccc(-c6cncc(NC(=O)Cc7ccccc7)c6)cc45)nc23)s1 [Compound 374, N-(5-(3-(4-(5-Acetylthiophen-2-yl)-1H-imidazo[4,5-c]pyridin-2-yl)-1H-indazol-5-yl)pyridin-3-yl)-2-phenylacetamide] | 0.009 | 0.009
16 | Cc1ccncc1-c1ccc2[nH]nc(-c3nc4c(-c5cc(F)cc(CNS(C)(=O)=O)c5)nccc4[nH]3)c2c1 [Compound 395, N-(3-Fluoro-5-(2-(5-(4-methylpyridin-3-yl)-1H-indazol-3-yl)-1H-imidazo [4,5-c]pyridin-4-yl)benzyl)methanesulfonamide] | 0.085 | 0.026
17 | CS(=O)(=O)NCc1cc(F)cc(-c2nccc3[nH]c(-c4n[nH]c5ccc(-c6cncc(NC(=O)Cc7ccccc7)c6)cc45)nc23)c1 [Compound 400, N-(5-(3-(4-(3-Fluoro-5-(methylsulfonamidomethyl)phenyl)-1H-imidazo[4,5-c]pyridin-2-yl)-1H-indazol-5-yl)pyridin-3-yl)-2-phenylacetamide] | > 10 | 0.009
18 | CS(=O)(=O)NCc1cc(F)cc(-c2nccc3[nH]c(-c4n[nH]c5ccc(-c6cncc(NC(=O)c7ccccc7)c6)cc45)nc23)c1 [Compound 401, N-(5-(3-(4-(3-Fluoro-5-(methylsulfonamidomethyl)phenyl)-1H-imidazo[4,5-c]pyridin-2-yl)-1H-indazol-5-yl)pyridin-3-yl)benzamide] | 0.032 | 9.99
19 | CCCC(=O)Nc1cncc(-c2ccc3[nH]nc(-c4nc5c(-c6cc(F)cc(CNS(C)(=O)=O)c6)nccc5[nH]4)c3c2)c1 [Compound 407, N-(5-(3-(4-(3-Fluoro-5-(methylsulfonamidomethyl)phenyl)-1H-imidazo[4,5-c]pyridin-2-yl)-1H-indazol-5-yl)pyridin-3-yl)butyramide] | 0.024 | 0.019
20 | CS(=O)(=O)NCc1cc(F)cc(-c2nccc3[nH]c(-c4n[nH]c5ccc(-c6cncc(CNCc7ccccc7)c6)cc45)nc23)c1 [Compound 413, N-(3-(2-(5-(5-((Benzylamino)methyl)pyridin-3-yl)-1H-indazol-3-yl)-1H-imidazo[4,5-c]pyridin-4-yl)-5-fluorobenzyl)methanesulfonamide] | 0.187 | 0.009
21 | CS(=O)(=O)NCc1cc(F)cc(-c2nccc3[nH]c(-c4n[nH]c5ccc(-c6cncnc6)cc45)nc23)c1 [Compound 416, N-(3-Fluoro-5-(2-(5-(pyrimidin-5-yl)-1H-indazol-3-yl)-1H-imidazo[4,5-c]pyridin-4-yl)benzyl)methanesulfonamide] | < 0.001 | 0.027
22 | CCNCc1cncc(-c2ccc3[nH]nc(-c4nc5c(-c6cc(F)cc(NCCN(C)C)c6)nccc5[nH]4)c3c2)c1 [Compound 422, N^1-(3-(2-(5-(5-((Ethylamino)methyl)pyridin-3-yl)-1H-indazol-3-yl)-1H-imidazo[4,5-c]pyridin-4-yl)-5-fluorophenyl)-N^2,N^2-dimethylethane-1,2-diamine] | 0.108 | 0.108
23 | CC(C)Nc1cncc(-c2ccc3[nH]nc(-c4nc5c(-c6cc(F)cc(NCCN(C)C)c6)nccc5[nH]4)c3c2)c1 [Compound 428, N^1-(3-Fluoro-5-(2-(5-(5-(isopropylamino)pyridin-3-yl)-1H-indazol-3-yl)-1H-imidazo[4,5-c]pyridin-4-yl)phenyl)-N^2,N^2-dimethylethane-1,2-diamine] | 0.006 | 0.009
24 | CCCCC(=O)Nc1cncc(-c2ccc3[nH]nc(-c4nc5c(-c6cc(F)cc(NCCN(C)C)c6)nccc5[nH]4)c3c2)c1 [Compound 434, N-(5-(3-(4-(3-((2-(Dimethylamino)ethyl)amino)-5-fluorophenyl)-1H-imidazo[4,5-c]pyridin-2-yl)-1H-indazol-5-yl)pyridin-3-yl)pentanamide] | 0.016 | 0.459
25 | CN(C)CCNc1cc(F)cc(-c2nccc3[nH]c(-c4n[nH]c5ccc(-c6cncc(CNCC7CCCC7)c6)cc45)nc23)c1 [Compound 440, N^1-(3-(2-(5-(5-(((Cyclopentylmethyl)amino)methyl)pyridin-3-yl)-1H-indazol-3-yl)-1H-imidazo[4,5-c]pyridin-4-yl)-5-fluorophenyl)-N^2,N^2-dimethylethane-1,2-diamine] | 0.539 | 0.009
26 | Fc1cccc(-c2nccc3[nH]c(-c4n[nH]c5ccc(C6CCNCC6)cc45)nc23)c1 [Compound 1769, 4-(3-Fluorophenyl)-2-(5-(piperidin-4-yl)-1H-indazol-3-yl)-1H-imidazo[4,5-c]pyridine] | 2.34 | 0.67
